Source: patent publication US20210346317A1, “TREATMENT OF HEMATOPOIETIC STEM CELL TRANSPLANT PATIENTS” (PRIOTHERA LIMITED, priority 2016, published 2021)

Tests used:
patients undergoing HSCT = assay: Neutrophil engraftment in patients after allogeneic hematopoietic stem cell transplantation; format: in vivo; settings: for neutrophil count above baseline: e.g. 2 mg KRP203/per day
Experimental: Day 1=drug treatment commences (e.g. 2 mg KRP203/per day)
Day 2 and Day 10: Conditioning was performed as described above (e.g. Mini Seattle or RIC)
Day 11: transplantation of stem cells from an allogeneic donor is being carried out
To monitor for engraftment of donor hematopoietic stem cells in recipients, the neutrophil count is measured usually daily. The commonly accepted definition of “day of engraftment” (take) is the first of three consecutive days with a neutrophil count higher than 500 cells per microliter. A neutrophil count of higher than 500 cells per microliter is reached in the below experiment, when the probability of engraftment is 1.0 (100%) versus baseline or higher. The donor origin of these cells is normally confirmed by genomic analyses on day 30.

[1] = tested on: Recipient C57BL/6 or IDUAKI (B6.129S-Iduatm1.1Kmke/J) mice; assay: Mouse model of inherited metabolic disease (IMD): HSC engraftment after mild non-myeloablative conditioning; format: in vivo
From the text: Recipient C57BL/6 or IDUAKI (B6.129S-Iduatm1.1Kmke/J) mice were conditioned with a mild non-myeloablative regimen. A limited number of 1×10E3 HSC were transplanted from congenic mice. Groups were either untreated or treated with KRP for 15 days.

[2] = day 56, 1×10E3 HSC from congenic mice, treated for 15 days, vs untreated group

Question: How did the “Probability of neutrophil engraftment” value (patients undergoing HSCT; Day 0) turn out when NC(CO)(CO)CCc1ccc(Sc2cccc(OCc3ccccc3)c2)cc1Cl [KRP203, 2-amino-2-[4-(3-benzyloxyphenylthio)-2-chlorophenyl]ethyl-propane-1,3-diol] was run?
Answer: 0.00

Question: What about the “Probability of neutrophil engraftment” value (patients undergoing HSCT; Day 10) of the same molecule?
Answer: 0.00

Question: What about the “Probability of neutrophil engraftment” value (patients undergoing HSCT; Day 11) of the same molecule?
Answer: 0.33

Question: And the “neutrophil count above baseline” value (patients undergoing HSCT; Day 11, control group 11%)?
Answer: 33 % above baseline

Question: What about the “Probability of neutrophil engraftment” value (patients undergoing HSCT; Day 12) of the same molecule?
Answer: 0.44

Question: And the “Probability of neutrophil engraftment” value (patients undergoing HSCT; Day 13)?
Answer: 0.67

Question: And the “Probability of neutrophil engraftment” value (patients undergoing HSCT; Day 14)?
Answer: 0.89

Question: What about the “Probability of neutrophil engraftment” value (patients undergoing HSCT; Day 15) of the same molecule?
Answer: 1.00

Question: What about the “neutrophil count above baseline” value (patients undergoing HSCT; Day 15, control group 48%) of the same molecule?
Answer: 100 % above baseline

Question: What about the “Probability of neutrophil engraftment” value (patients undergoing HSCT; Day 16) of the same molecule?
Answer: 1.00

Question: And the “Probability of neutrophil engraftment” value (patients undergoing HSCT; Day 17)?
Answer: 1.00

Question: What about the “Probability of neutrophil engraftment” value (patients undergoing HSCT; Day 18) of the same molecule?
Answer: 1.00

Question: What about the “Probability of neutrophil engraftment” value (patients undergoing HSCT; Day 19) of the same molecule?
Answer: 1.00

Question: And the “Probability of neutrophil engraftment” value (patients undergoing HSCT; Day 20)?
Answer: 1.00

Question: And the “Probability of neutrophil engraftment” value (patients undergoing HSCT; Day 21)?
Answer: 1.00

Question: And the “Probability of neutrophil engraftment” value (patients undergoing HSCT; Day 22)?
Answer: 1.00

Question: And the “Probability of neutrophil engraftment” value (patients undergoing HSCT; Day 23)?
Answer: 1.00

Question: What about the “speed of engraftment vs control group” value (patients undergoing HSCT; FIG. 1 and Table 1, patients treated with KRP203) of the same molecule?
Answer: engrafted much faster than the control group

Question: And the “donor cells in engrafted mice” value [1, 2]?
Answer: more donor cells than the untreated group

Question: And the mice engrafted [1, 2]?
Answer: More mice from the KRP203 treated group engrafted

Question: What about the “engraftment (conclusion)” value ([1]; non-myeloablative conditions, limited HSC, treatment in the peri-transplant period) of the same molecule?
Answer: augments engraftment
